Here are results for 11 molecules from US5132111A (priority 1990, dated 1992).

Experiment [1] concerns secretion of ACTH and β-END-LI.
The subject of experiment [2] is CRF Target Cells (anterior pituitary cells). The experiment is classed as cell-based, rat.
In experiment [3] the test system is gonadotropes (anterior pituitary cells). The format is cell-based, rat.

Non-standard residues stand in square brackets, D forms with d. Residues, ends and D or L forms follow the SMILES beside them. Nle = CCCC[C@H](N)C(=O)O

On to `CCCC[C@H](NC(=O)[C@H](CCC(=O)O)NC(=O)[C@H](CC(C)C)NC(=O)[C@H](CCCC)NC(=O)[C@H](CCC(=O)O)NC(=O)[C@H](CCCNC(=N)N)NC(=O)[C@H](CC(C)C)NC(=O)[C@H](CC(C)C)NC(=O)[C@H](Cc1c[nH]cn1)NC(=O)[C@H](Cc1ccccc1)NC(=O)[C@@H](NC(=O)[C@H](CC(C)C)NC(=O)[C@@H](N)CC(=O)O)[C@@H](C)O)C(=O)N[C@@H](C)C(=O)N[C@@H](CCCNC(=N)N)C(=O)N[C@@H](C)C(=O)N[C@@H](CCC(=O)O)C(=O)N[C@@H](CCC(N)=O)C(=O)N[C@@H](CCC(=O)O)C(=O)N[C@@H](C)C(=O)N[C@@H](CCC(=O)O)C(=O)N[C@@H](CCC(N)=O)C(=O)N[C@@H](C)C(=O)N[C@@H](C)C(=O)N[C@@H](CC(C)C)C(=O)N[C@@H](CC(N)=O)C(=O)N[C@@H](CCCNC(=N)N)C(=O)N[C@@H](CC(C)C)C(=O)N[C@@H](CC(C)C)C(=O)N[C@@H](CC(C)C)C(=O)N[C@@H](CCC(=O)O)C(=O)N[C@@H](CCC(=O)O)C(=O)N[C@@H](C)C(N)=O` [[Nle^18,21]-AAHC(9-41)] (H-DLTFHLLRE[Nle]LE[Nle]ARAEQEAEQAALNRLLLEEA-NH2), for which, in experiment [1], the “secretion of ACTH (inhibition)” value is recorded as “inhibits” and the “secretion of β-END-LI (inhibition)” value is “inhibits”.
Turning to `CCCC[C@H](NC(=O)[C@H](CCC(=O)O)NC(=O)[C@H](CC(C)C)NC(=O)[C@H](CCCC)NC(=O)[C@H](CCC(=O)O)NC(=O)[C@H](CCCNC(=N)N)NC(=O)[C@H](CC(C)C)NC(=O)[C@H](CC(C)C)NC(=O)[C@H](Cc1c[nH]cn1)NC(=O)[C@H](Cc1ccccc1)NC(=O)[C@@H](NC(=O)[C@@H](N)CC(C)C)[C@@H](C)O)C(=O)N[C@@H](C)C(=O)N[C@@H](CCCNC(=N)N)C(=O)N[C@@H](C)C(=O)N[C@@H](CCC(=O)O)C(=O)N[C@@H](CCC(N)=O)C(=O)N[C@@H](CCC(=O)O)C(=O)N[C@@H](C)C(=O)N[C@@H](CCC(=O)O)C(=O)N[C@@H](CCC(N)=O)C(=O)N[C@@H](C)C(=O)N[C@@H](C)C(=O)N[C@@H](CC(C)C)C(=O)N[C@@H](CC(N)=O)C(=O)N[C@@H](CCCNC(=N)N)C(=O)N[C@@H](CC(C)C)C(=O)N[C@@H](CC(C)C)C(=O)N[C@@H](CC(C)C)C(=O)N[C@@H](CCC(=O)O)C(=O)N[C@@H](CCC(=O)O)C(=O)N[C@@H](C)C(N)=O` [[Nle^18,21]-AAHC(10-41)] (H-LTFHLLRE[Nle]LE[Nle]ARAEQEAEQAALNRLLLEEA-NH2), in experiment [1], the “secretion of ACTH (inhibition)” value was “inhibits” and the “secretion of β-END-LI (inhibition)” value is reported as “inhibits”.
Regarding “H-LTFHLLREVLEMARAEQLAQQAHSNRRLMEII-NH2 [[Arg^36]-rCRF(10-41)]”, in experiment [1], the “secretion of ACTH (inhibition)” value was “inhibits” and the “secretion of β-END-LI (inhibition)” value was “inhibits”.
Take “H-LDLTFHLLREVLEMARAEQLAQQAHSNRRLMEII-NH2 [[Arg^36]-rCRF(8-41)]”: in experiment [1], the “secretion of ACTH (inhibition)” value is “inhibits” and the “secretion of β-END-LI (inhibition)” value is “inhibits”.
Consider `CCCC[C@H](NC(=O)[C@H](CCC(=O)O)NC(=O)[C@H](CC(C)C)NC(=O)[C@H](CCCC)NC(=O)[C@H](CCC(=O)O)NC(=O)[C@H](CCCNC(=N)N)NC(=O)[C@H](CC(C)C)NC(=O)[C@H](CC(C)C)NC(=O)[C@H](Cc1c[nH]cn1)NC(=O)[C@H](Cc1ccccc1)NC(=O)[C@@H](NC(=O)[C@H](CC(C)C)NC(=O)[C@H](CC(=O)O)NC(=O)[C@@H](N)CC(C)C)[C@@H](C)O)C(=O)N[C@@H](C)C(=O)N[C@@H](CCCNC(=N)N)C(=O)N[C@@H](C)C(=O)N[C@@H](CCC(=O)O)C(=O)N[C@@H](CCC(N)=O)C(=O)N[C@@H](CCC(=O)O)C(=O)N[C@@H](C)C(=O)N[C@@H](CCC(=O)O)C(=O)N[C@@H](CCC(N)=O)C(=O)N[C@@H](C)C(=O)N[C@@H](C)C(=O)N[C@@H](CC(C)C)C(=O)N[C@@H](CC(N)=O)C(=O)N[C@@H](CCCNC(=N)N)C(=O)N[C@@H](CC(C)C)C(=O)N[C@@H](CC(C)C)C(=O)N[C@@H](CC(C)C)C(=O)N[C@@H](CCC(=O)O)C(=O)N[C@@H](CCC(=O)O)C(=O)N[C@@H](C)C(N)=O` [[Nle^18,21]-AAHC(8-41)] (H-LDLTFHLLRE[Nle]LE[Nle]ARAEQEAEQAALNRLLLEEA-NH2), for which, in experiment [1], the “secretion of ACTH (inhibition)” value is “inhibits” and the “secretion of β-END-LI (inhibition)” value is on record as “inhibits”.
Take “H-DLTFHLLREVAEMTRAEQLAQQAHSNRRLMEII-NH2 [[Ala^19, Thr^22, Arg^36]-hCRF (9-41)]”: in experiment [1], the “secretion of ACTH (inhibition)” value is “inhibits” and the “secretion of β-END-LI (inhibition)” value is “inhibits”.
Regarding “H-Ser-Gln-Glu-Pro-Pro-Ile-Ser-Leu-Asp-Leu-Thr-Phe-His -Leu-Leu-Arg-Glu-Val-Leu-Glu-Met-Thr-Lys-Ala-Asp-Gln -Leu-Ala-Gln-Gln-Ala-His-Ser-Asn-Arg-Lys-Leu-Leu-Asp-Ile-Ala-NH2 [CRF]”, in experiment [2], the “ACTH secretion in response to CRF 3 days following pretreatment” value amounted to 3.7 times the basal rate, the “ACTH-secretory response to subsequent CRF after pretreatment” value was “does not eliminate the ability of the cells to respond” and the “decrease of ACTH content” value was 40%. For the same molecule, in experiment [3], the “LH-secretory response to GnRH after pretreatment” value was “no effect” and the “effect on LH content” value was “neither CRF nor the cytotoxic conjugate has any significant effect on LH content”.
With `CCCC[C@H](NC(=O)[C@H](CCC(=O)O)NC(=O)[C@H](CC(C)C)NC(=O)[C@H](CCCC)NC(=O)[C@H](CCC(=O)O)NC(=O)[C@H](CCCNC(=N)N)NC(=O)[C@H](CC(C)C)NC(=O)[C@H](CC(C)C)NC(=O)[C@H](CCC(=O)O)NC(=O)[C@H](Cc1ccccc1)NC(=O)[C@@H](NC(=O)[C@H](CC(C)C)NC(=O)[C@@H](N)CC(=O)O)[C@@H](C)O)C(=O)N[C@@H](C)C(=O)N[C@@H](CCCNC(=N)N)C(=O)N[C@@H](C)C(=O)N[C@@H](CCC(=O)O)C(=O)N[C@@H](CCC(N)=O)C(=O)N[C@@H](CCC(=O)O)C(=O)N[C@@H](C)C(=O)N[C@@H](CCC(=O)O)C(=O)N[C@@H](CCC(N)=O)C(=O)N[C@@H](C)C(=O)N[C@@H](C)C(=O)N[C@@H](CC(C)C)C(=O)N[C@@H](CC(N)=O)C(=O)N[C@@H](CCCNC(=N)N)C(=O)N[C@@H](CC(C)C)C(=O)N[C@@H](CC(C)C)C(=O)N[C@@H](CC(C)C)C(=O)N[C@@H](CCC(=O)O)C(=O)N[C@@H](CCC(=O)O)C(=O)N[C@@H](C)C(N)=O` [[Glu^13,Nle^18,21]-AAHC(9-41)] (H-DLTFELLRE[Nle]LE[Nle]ARAEQEAEQAALNRLLLEEA-NH2), in experiment [1], the “secretion of ACTH (inhibition)” value is on record as “inhibits” and the “secretion of β-END-LI (inhibition)” value is “inhibits”.
Regarding “H-DLTFELLREVLEVARAEQLAQQAHSNRRLMEII-NH2 [[Glu^13, Val^21, Arg^36]-rCRF (9-41)]”, in experiment [1], the “secretion of ACTH (inhibition)” value is on record as “inhibits” and the “secretion of β-END-LI (inhibition)” value is recorded as “inhibits”.
With `CCCC[C@H](N)C(=O)N[C@@H](CC(=O)O)C(=O)N[C@@H](CC(C)C)C(=O)N[C@@H](CO)C(=O)N[C@@H](Cc1ccccc1)C(=O)N[C@@H](Cc1c[nH]cn1)C(=O)N[C@@H](CC(C)C)C(=O)N[C@@H](CC(C)C)C(=O)N[C@@H](CCCNC(=N)N)C(=O)N[C@@H](CCC(=O)O)C(=O)N[C@H](C(=O)N[C@@H](CC(C)C)C(=O)N[C@@H](CCC(=O)O)C(=O)N[C@@H](CCSC)C(=O)N[C@@H](C)C(=O)N[C@@H](CCCNC(=N)N)C(=O)N[C@@H](C)C(=O)N[C@@H](CCC(=O)O)C(=O)N[C@@H](CCC(N)=O)C(=O)N[C@@H](CC(C)C)C(=O)N[C@@H](C)C(=O)N[C@@H](CCC(N)=O)C(=O)N[C@@H](CCC(N)=O)C(=O)N[C@@H](C)C(=O)N[C@@H](Cc1c[nH]cn1)C(=O)N[C@@H](CC(C)C)C(=O)N[C@@H](CC(N)=O)C(=O)N[C@@H](CCCNC(=N)N)C(=O)N[C@@H](CCCNC(=N)N)C(=O)N[C@@H](CC(C)C)C(=O)N[C@@H](CCSC)C(=O)N[C@@H](CCC(=O)O)C(=O)N[C@H](C(=O)N[C@H](C(N)=O)[C@@H](C)CC)[C@@H](C)CC)C(C)C` (H-[Nle]DLSFHLLREVLEMARAEQLAQQAHLNRRLMEII-NH2), in experiment [1], the “secretion of ACTH (inhibition)” value is given as “inhibits” and the “secretion of β-END-LI (inhibition)” value was “inhibits”.
For the molecule “H-DLTFHLLREMLEMARAEQEAEQAALNRLLLEEA-NH2 [AAHC(9-41)]”, the “secretion of ACTH (inhibition)” value in experiment [1] is on record as “inhibits”.
